Assay results: patent publication US20160237502A1, “MARKERS FOR LIPID METABOLISM” (priority 2014, published 2016)
“Also recorded” adds a separate entry of the source.

Tests used:
alh-6 mutants = conditions: NAC treatment, previous study; cited from earlier work
alh-6 mutant worms = assay: Fat content during fasting measured by Nile Red staining; assay type: in vivo, C. elegans; conditions: NAC-treated alh-6 mutant worms
Method: For starvation, synchronized L1 animals were added to nematode growth medium (NGM) plates seeded with indicated bacteria. After 2 days at 20° C., L4 animals were collected, washed with M9 buffer at least three times and then subjected to fasting in M9 liquid with shaking for indicated time before collection for further analysis. Starvation survival assay was performed as previous described (Artyukhin et al., Sci. Rep.; 3, 2777; 2013). […] After 24 h, synchronized L1 animals were resuspended in M9 at a concentration of two worms per microliter. Starvation culture was mixed by constant rocking. Every 2 days, a portion of animals was recovered on normal OP50-seeded NGM plates. Animals that resumed development were considered to be surviving.
Nile Red staining was performed as previously described (Pino, et al., J. Vis. Exp. 73; 2013). Briefly, animals of indicated genotypes were collected, fixed in 40% isopropanol at room temperature for 3 min and stained in 3 μg ml-1 Nile Red working solution in dark for 2 h. Worms were then washed with M9 for at least 30 min, mounted on slides and imaged under the green fluorescent protein channel of microscope Zeiss Axio Imager with Zen software package. Fluorescent density was measured using ImageJ software. Approximately ten animals from each experiment (n) were used to calculate the fluorescent density.

SKN-1 = SKN-1 transcriptional activity reporter gst-4p::GFP activation in worms; assay type: in vivo, C. elegans

Compound: CC(=O)N[C@@H](CS)C(=O)O [NAC, N-acetylcysteine]
- shortened lifespan of alh-6 mutants (alh-6 mutants): completely abrogated the shortened lifespan
- fat mobilization in response to fasting (alh-6 mutant worms): still exhibited accelerated fat mobilization
- SKN-1 reporter activation induced by exposure to arsenite (SKN-1; gst-4p::GFP reporter, arsenite as inducer of oxidative stress, NAC treatment): blocked the SKN-1 reporter activation; also recorded: inhibits arsenite (AS) induced SKN-1 reporter activation
- SKN-1 activation observed in fasted alh-6 mutants (SKN-1; gst-4p::GFP reporter, fasted alh-6 mutants, NAC treatment): no effect; also recorded: not activation when alh-6 mutants are fasted

Compound: arsenite
- SKN-1 reporter activation (SKN-1; in vivo): SKN-1 reporter activation induced
